Assay results published in ChEMBL document CHEMBL4402538, “Mycobacterial tryptophan biosynthesis: A promising target for tuberculosis drug development?” (Bioorg Med Chem Lett, 2019).
≈ marks a conversion by molar mass, not a printed value.

Columns and labels:
[1] = test system: Mycobacterium tuberculosis; test: Antimycobacterial activity against ofloxacin/isoniazid resistant Mycobacterium tuberculosis CI-14 incubated for 2 weeks; assay type: functional; settings: CI-14, 336 h
[2] = test system: Mycobacterium tuberculosis; test: Antimycobacterial activity against ofloxacin resistant Mycobacterium tuberculosis CI-10 incubated for 2 weeks; assay type: functional; settings: CI-10, 336 h
[3] = test system: Mycobacterium tuberculosis; test: Antimycobacterial activity against isoniazid resistant Mycobacterium tuberculosis BAA-812 incubated for 2 weeks; assay type: functional; settings: BAA-812, 336 h
[4] = test system: Mycobacterium tuberculosis; test: Antimycobacterial activity against isoniazid/streptomycin resistant Mycobacterium tuberculosis 01-R0348 incubated for 2 weeks; assay type: functional; settings: 01-R0348, 336 h
[5] = test system: Mycobacterium tuberculosis; test: Antimycobacterial activity against streptomycin resistant Mycobacterium tuberculosis 98-01436 incubated for 2 weeks; assay type: functional; settings: 98-01436, 336 h
[6] = Inhibition of Mycobacterium tuberculosis Anthranilate phosphoribosyltransferase expressed in Escherichia coli BL21(DE3) pRIL cells harboring PRAI-InGPS preincubated for 10 mins followed by anthranilate addition in presence of PRPP
[7] = test system: Mycobacterium tuberculosis; test: Inhibition of Mycobacterium tuberculosis Anthranilate phosphoribosyltransferase expressed in Escherichia coli BL21(DE3) pRIL cells harboring PRAI-InGPS assessed as residual activity preincubated for 10 mins followed by anthranilate addition in presence of PRPP relative to control

N#C[C@@H]1N[C@@H](CO)[C@H]1c1ccc(-c2ccccc2F)cc1
MIC90 [1]: 3 µM (≈ 0.847 µg/mL)
MIC90 [2]: 1.6 µM (≈ 0.452 µg/mL)
MIC90 [3]: 3 µM (≈ 0.847 µg/mL)
MIC90 [4]: 1.6 µM (≈ 0.452 µg/mL)
MIC90 [5]: 1.6 µM (≈ 0.452 µg/mL)

Cc1ccc(C(=O)O)c(Nc2c(C)cccc2C(=O)O)c1
IC50 [6]: 6.8 µM

Cc1cccc(C(=O)O)c1Nc1cc(Cl)ccc1C(=O)O
IC50 [6]: 5.8 µM

O=C(O)c1ccccc1Nc1cccc(Nc2ccccc2C(=O)O)c1C(=O)O
IC50 [6]: 2.2 µM
Activity [7]: 6%

Cc1cccc(C(=O)O)c1Nc1cc(Br)ccc1C(=O)O
IC50 [6]: 3.3 µM
